Laboratory results published in US8158621B2, “Methods of treating or preventing autoimmune diseases with 2,4-pyrimidinediamine compounds” (Rigel Pharmaceuticals, Inc., priority 2002, dated 2012).
pIC50: −log10 of the molar value.

system: cultured human mast cells (CHMC); experiment: CHMC low cell density IgE activation: tryptase assay; format: cell-based; conditions: Homo sapiens, Mast cell, Low Density; read-out: CHMC anti-IgE Tryptase
Procedure: Pellet CHMC cells (980 rpm, 10 min) and resuspend in pre-warmed MT. Add 65 ul of cells to each 96-well plate. Depending on the degranulation activity for each particular CHMC donor, load 1000-1500 cells/well. Mix four times followed by a 1 hr incubation at 37° C. […] Stimulate cells by adding 25 ul of 6× anti-IgE solution to the appropriate plates. Add 25 ul MT to un-stimulated control wells. Mix twice following addition of the anti-IgE. Incubate at 37° C. for 30 minutes. […] Spin plates at 1000 rpm for 10 min to pellet cells. Transfer 25 ul of supernatant to a 96-well black bottom plate and add 100 ul of freshly diluted tryptase substrate solution to each well. Incubate plates at room temperature for 30 min.

pIC50	SMILES
< 5.00	CN(C=C1C=CC=C(Nc2nc(Cl)ncc2F)C1)C(=O)OC(C)(C)C [Compound R940315]

same assay, conditions: low cell density; read-out: CHMC anti-IgE Tryptase

SMILES	pIC50
Cc1cc(C)cc(Nc2ncc(F)c(Nc3ccc4c(c3)NC(=O)C(C)(C)O4)n2)c1 [Compound R927076]	7.15
Cc1cc(Nc2ncc(F)c(Nc3ccc4c(c3)NC(=O)C(C)(C)O4)n2)cc(C)c1C [Compound R926994]	7.21
COc1cc(Nc2ncc(F)c(Nc3ccc4cnn(C)c4c3)n2)cc(OC)c1 [Compound R935420]	6.25
CNC(=O)COc1cccc(Nc2ncc(F)c(Nc3ccc(N(C)C(C)=O)cc3)n2)c1 [Compound R945377]	5.95
Fc1ccc(Nc2nc(Nc3ccc4[nH]ncc4c3)ncc2F)cc1Cl [Compound R935428]	5.90
COC(=O)N1CCN(c2ccc(Nc3nc(NC4CC4)ncc3F)cc2)CC1 [Compound R945373]	< 5.00
CC1(C)Oc2ccc(Nc3ncc(F)c(Nc4ccc(Cl)c(Cl)c4)n3)cc2NC1=O [Compound R927059]	6.54
Cc1cc(Nc2ncc(F)c(Nc3ccc4cnn(C)c4c3)n2)cc(Cl)c1O [Compound R935395]	6.56
CCOC(=O)CCn1ncc2cc(Nc3ncc(F)c(Nc4ccc(Cl)c(Cl)c4)n3)ccc21 [Compound R935389]	6.06
CCN(CC)CCNC(=O)c1ccc(Nc2ncc(F)c(Nc3ccc4c(c3)NC(=O)[C@H](C)O4)n2)cc1 [Compound R950446]	6.83
COc1cc(Nc2nc(Nc3ccc4c(cnn4C)c3)ncc2F)ccc1F [Compound R935410]	6.38
COc1ccc(Nc2nc(Nc3cc(C)cc(C)c3)ncc2F)cc1Cl [Compound R926991]	6.36
NCc1ccc(Nc2ncc(F)c(Nc3ccc4c(c3)NC(=O)C(F)(F)O4)n2)cc1 [Compound R950465]	6.45
O=C1COc2ccc(Nc3nc(Nc4ccc(OCc5ccccc5)cc4)ncc3F)nc2N1 [Compound R945410]	< 5.00
CNC(=O)COc1cccc(Nc2ncc(F)c(Nc3ccc(OC4CCC(N)CC4)c(Cl)c3)n2)c1 (mixture of isomers) [Compound R945403]	5.77
CC(C)(C)OC(=O)NC1CCOc2ccc(Nc3ncc(F)c(Nc4ccc(Cl)c(Cl)c4)n3)cc21 (racemic) [Compound R950433]	< 5.00
C[C@@H]1Oc2ccc(Nc3nc(N[C@@H]4CCCC[C@H]4N)ncc3F)cc2NC1=O [Compound R950441]	< 5.00
COc1cc(Nc2ncc(F)c(Nc3ccc4cn[nH]c4c3)n2)cc(OC)c1 [Compound R935423]	6.78
CNC(=O)COc1cccc(Nc2ncc(F)c(Nc3ccc4c(c3)C(NS(C)(=O)=O)CCO4)n2)c1 (racemic) [Compound R950494]	< 5.00
COc1ccc(Nc2nc(Nc3ccc4cnn(CCCO)c4c3)ncc2F)cc1Cl [Compound R935407]	6.41
COc1cc(Nc2ncc(F)c(Nc3ccc4c(c3)NC(=O)C(C)(C)O4)n2)cc(OC)c1 [Compound R927072]	7.19

SMILES	pIC50
CNC(=O)CCn1ncc2ccc(Nc3ncc(F)c(Nc4ccc(OC)c(Cl)c4)n3)cc21 [Compound R935409]	5.93
Fc1cnc(NC2CCC2)nc1NC1CCC1 [Compound R945380]	< 5.00
CC(=O)N(C)c1ccc(Nc2nc(NC3CC3)ncc2F)cc1 [Compound R945375]	< 5.00
CNC(=O)COc1cccc(Nc2ncc(F)c(Nc3ccc4c(c3)C(NS(=O)(=O)c3ccc(C)cc3)CCO4)n2)c1 (racemic) [Compound R950493]	5.72
CCN(CC)CCNC(=O)c1ccc(Nc2ncc(F)c(Nc3ccc4c(c3)NC(=O)C(F)(F)O4)n2)cc1 [Compound R950449]	6.18
CNC(=O)COc1cccc(Nc2ncc(F)c(Nc3ccc(OC)c(Cl)c3)n2)c1 [Compound R926989]	6.70
OCCCn1ncc2ccc(Nc3ncc(F)c(Nc4ccc(Cl)c(Cl)c4)n3)cc21 [Compound R935405]	6.41
COc1c(C)cc(Nc2ncc(F)c(Nc3ccc4c(c3)OCCO4)n2)cc1Cl [Compound R940397]	5.43
NC(=O)c1ccc(Nc2ncc(F)c(Nc3ccc(Cl)c(Cl)c3)n2)cc1 [Compound R950451]	7.15
CCOC(=O)CCn1ncc2ccc(Nc3ncc(F)c(Nc4ccc(Cl)c(Cl)c4)n3)cc21 [Compound R935403]	6.09
O=C1COc2ccc(Nc3nc(Nc4ccc(Oc5ccccc5)cc4)ncc3F)nc2N1 [Compound R945409]	< 5.00
CNC(=O)CCn1ncc2cc(Nc3ncc(F)c(Nc4ccc(Cl)c(Cl)c4)n3)ccc21 [Compound R935390]	6.26
CC(=O)N(C)c1ccc(Nc2ncc(F)c(Nc3ccc4c(n3)NC(=O)CO4)n2)cc1 [Compound R945420]	6.36
CC(=O)N1CCN(c2ccc(Nc3nc(NC4CC4)ncc3F)cc2)CC1 [Compound R945381]	< 5.00
C[C@@H]1Oc2ccc(Nc3nc(Nc4ccc(CN)cc4)ncc3F)cc2NC1=O [Compound R950461]	6.85
COC(=O)c1ccc(Cn2ncc3ccc(Nc4ncc(F)c(Nc5ccc6c(c5)NC(=O)C(C)(C)O6)n4)cc32)c(OC)c1 [Compound R935442]	6.15
NCc1ccc(Nc2ncc(F)c(Nc3ccc(Cl)c(Cl)c3)n2)cc1 [Compound R950459]	6.20
Cc1cc(Nc2ncc(F)c(Nc3ccc4c(c3)OCCO4)n2)cc(Cl)c1O [Compound R940393]	5.28
CC(C)(C)OC(=O)NC1CCOc2ccc(Nc3nc(Nc4ccc(Cl)c(Cl)c4)ncc3F)cc21 (racemic) [Compound R950429]	5.40
C[C@@H]1Oc2ccc(Nc3nc(Nc4ccc(C(N)=O)cc4)ncc3F)cc2NC1=O [Compound R950452]	7.00
COc1ccc(Nc2nc(Nc3ccc4[nH]ncc4c3)ncc2F)cc1OC [Compound R935441]	6.23

Second part, the compound after the results:

pIC50	SMILES
< 5.00	COc1cc(Nc2nc(N[C@@H]3CCCC[C@H]3N)ncc2F)cc(OC)c1 [Compound R950439]
6.17	CN(C)C(=O)C1Cc2cc(Nc3ncc(F)c(Nc4ccc(OC(F)(F)F)c(Cl)c4)n3)ccc2O1 (centres unmarked) [Compound R927053]
6.24	CNC(=O)CCn1ncc2ccc(Nc3ncc(F)c(Nc4ccc(Cl)c(Cl)c4)n3)cc21 [Compound R935404]
6.61	CC(C)(C)OC(=O)NCc1ccc(Nc2ncc(F)c(Nc3ccc4c(c3)NC(=O)C(F)(F)O4)n2)cc1 [Compound R950464]
6.54	OCCCn1ncc2cc(Nc3ncc(F)c(Nc4ccc(F)c(F)c4)n3)ccc21 [Compound R935386]
6.38	COc1cc(Nc2nc(Nc3ccc4[nH]ncc4c3)ncc2F)ccc1F [Compound R935417]
5.96	COc1cc(Nc2nc(Nc3ccc(C(N)=O)cc3)ncc2F)cc(OC)c1 [Compound R950450]
5.65	O=C(COc1cccc(Nc2ncc(F)c(NC3CCC3)n2)c1)NC1CCC1 [Compound R945396]
< 5.00	Cn1ncc2cc(Nc3ncc(F)c(Nc4ccc(F)c(Cl)c4)n3)ccc21 [Compound R935426]
5.62	COc1cc(Nc2nc(Nc3ccc4c(c3)C(NC(=O)OC(C)(C)C)CCO4)ncc2F)cc(OC)c1 (racemic) [Compound R950432]
6.66	NC(=O)c1ccc(Nc2ncc(F)c(Nc3ccc4c(c3)NC(=O)C(F)(F)O4)n2)cc1 [Compound R950455]
6.53	CNC(=O)COc1cccc(Nc2ncc(F)c(Nc3cc(C)c(OC)c(Cl)c3)n2)c1 [Compound R926974]
< 5.00	Cn1ncc2cc(Nc3ncc(F)c(Nc4ccc(Cl)c(F)c4)n3)ccc21 [Compound R935411]
6.29	Cn1ncc2ccc(Nc3ncc(F)c(Nc4ccc(F)c(F)c4)n3)cc21 [Compound R935401]
6.51	CCOC(=O)CCn1ncc2ccc(Nc3ncc(F)c(Nc4ccc5c(c4)NC(=O)C(C)(C)O5)n3)cc21 [Compound R935434]
5.54	CCNC1CCC(Oc2ccc(Nc3nc(Nc4cccc(OCC(=O)NC)c4)ncc3F)cc2Cl)CC1 (mixture of isomers) [Compound R945411]
5.61	CC1(C)C(=O)NC(=O)c2cc(Nc3nc(Nc4ccc(CN)cc4)ncc3F)ccc21 [Compound R950463]
4.64	COc1c(C)cc(Nc2ncc(F)c(Nc3ccc4c(c3)OCCO4)n2)cc1C [Compound R940396]
< 5.00	CC(C)(C)OC(=O)NCc1ccc(Nc2ncc(F)c(Nc3ccc4c(c3)C(=O)NC(=O)C4(C)C)n2)cc1 [Compound R950462]
5.59	COC(=O)c1ccc(Cn2cc3ccc(Nc4ncc(F)c(Nc5ccc(Cl)c(Cl)c5)n4)cc3n2)c(OC)c1 [Compound R935396]
7.30	Cn1ncc2ccc(Nc3ncc(F)c(Nc4ccc5c(c4)NC(C)(C)CO5)n3)cc21 [Compound R908592]
6.52	CNC(=O)COc1cccc(Nc2ncc(F)c(Nc3ccc4c(c3)C(NC)CCO4)n2)c1 (racemic) [Compound R950412]
5.64	CNC(=O)COc1cccc(Nc2ncc(F)c(Nc3ccc4c(c3)C(NC(=O)CN(C)C)CCO4)n2)c1 (racemic) [Compound R950416]
6.05	COc1ccc(Nc2ncc(F)c(Nc3ccc4c(c3)NC(=O)C(C)(C)O4)n2)c(OC)n1 [Compound R927068]
5.54	COc1cc(Nc2ncc(F)c(Nc3ccc4cnn(C)c4c3)n2)c(OC)cc1Cl [Compound R935421]
< 5.00	COC(=O)N1CCN(c2ccc(Nc3nc(NC4CCC4)ncc3F)cc2)CC1 [Compound R945374]
5.95	CNC(=O)COc1cccc(Nc2ncc(F)c(NC3CCC3)n2)c1 [Compound R945387]
6.04	CNC(=O)COc1cccc(Nc2ncc(F)c(Nc3ccc(OC4CCC(NC(=O)OC(C)(C)C)CC4)c(Cl)c3)n2)c1 (mixture of isomers) [Compound R945384]
